For 22 molecules, IC50 results are on record in patent US8148391B2 (Cephalon, Inc., priority 2006, dated 2012).

Read-outs that look alike come from different tables or passages of the source.

The target in test [1] is T1, baculovirus-expressed ALK (Homo sapiens, UniProt Q9UM73).
T1 construct: host or cells: baculovirus expression system
The test is described as follows: ALK Kinase Assay (ELISA-type, time-resolved fluorescence). It is filed as biochemical. The gist of the method:
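Plates coated with phospholipase C-γ substrate (10 μg/mL in TBS); reaction started with 30 ng/ml ALK and run 15 min at 37° C. Phosphorylated substrate detected with Eu-N1-labeled PT66 antibody. IC50 from sigmoidal variable-slope fit of percent inhibition vs log concentration.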
(ELISA stands for enzyme-linked immunosorbent assay.)

The target of test [2] is T2, c-Met (cytoplasmic domain) (Homo sapiens, UniProt P08581).
T2 construct: 10 ng/mL c-Met (cytoplasmic domain, Invitrogen Corporation #PV3143); purchased Invitrogen Corporation PV3143
T2 sequence (P08581 956-1390 limits assumed): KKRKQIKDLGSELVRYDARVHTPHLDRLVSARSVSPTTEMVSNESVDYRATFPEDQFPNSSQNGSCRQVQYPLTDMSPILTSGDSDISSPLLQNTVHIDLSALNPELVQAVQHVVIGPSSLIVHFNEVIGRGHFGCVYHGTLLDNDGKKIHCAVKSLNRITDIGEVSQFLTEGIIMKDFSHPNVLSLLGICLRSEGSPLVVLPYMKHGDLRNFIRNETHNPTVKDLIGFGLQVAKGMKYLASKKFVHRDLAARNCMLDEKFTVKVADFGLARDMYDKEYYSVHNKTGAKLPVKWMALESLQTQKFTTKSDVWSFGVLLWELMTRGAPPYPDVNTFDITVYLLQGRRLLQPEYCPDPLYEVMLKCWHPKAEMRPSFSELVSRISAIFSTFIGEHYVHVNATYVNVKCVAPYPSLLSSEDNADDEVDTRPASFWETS
The experiment in a line: c-Met Kinase Assay (same methods as for ALK, with modifications). Type of test: biochemical. The gist of the method: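 Europium-labeled PT66 antibody (Eu-N1) detects substrate phosphorylation on wells coated with phospholipase C-γ at 10 μg/mL. The kinase, the cytoplasmic domain of c-Met at 10 ng/mL, starts the reaction, which proceeds 15 minutes at 37° C.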

The mark [3] stands for this setting: 1 μM ATP (Km level), read-out: ALK Activity (ALK Kinase Inhibition, IC50).
The mark [4] stands for this setting: 1 μM ATP (Km level), read-out: cMet Activity (c-Met Kinase Inhibition, IC50).
The mark [5] stands for this setting: ALK kinase inhibition, 1 μM ATP, read-out: ALK Activity.
The mark [6] stands for this setting: c-Met kinase inhibition, 1 μM ATP, read-out: cMet Activity.
Where [7] appears, read: ALK kinase inhibition, 1 μM ATP (Km level), read-out: ALK Activity.
[8] abbreviates: c-Met kinase inhibition, 1 μM ATP (Km level), read-out: cMet Activity.
[9] abbreviates: 1 μM ATP (Km level), 30 ng/ml ALK, 37° C., 15 minutes, read-out: ALK Activity (ALK kinase inhibition, IC50 class).
Where [10] appears, read: 1 μM ATP (Km level), 10 ng/mL c-Met, read-out: cMet Activity (c-Met kinase inhibition, IC50 class).

T1 sequence (Q9UM73 19-1620): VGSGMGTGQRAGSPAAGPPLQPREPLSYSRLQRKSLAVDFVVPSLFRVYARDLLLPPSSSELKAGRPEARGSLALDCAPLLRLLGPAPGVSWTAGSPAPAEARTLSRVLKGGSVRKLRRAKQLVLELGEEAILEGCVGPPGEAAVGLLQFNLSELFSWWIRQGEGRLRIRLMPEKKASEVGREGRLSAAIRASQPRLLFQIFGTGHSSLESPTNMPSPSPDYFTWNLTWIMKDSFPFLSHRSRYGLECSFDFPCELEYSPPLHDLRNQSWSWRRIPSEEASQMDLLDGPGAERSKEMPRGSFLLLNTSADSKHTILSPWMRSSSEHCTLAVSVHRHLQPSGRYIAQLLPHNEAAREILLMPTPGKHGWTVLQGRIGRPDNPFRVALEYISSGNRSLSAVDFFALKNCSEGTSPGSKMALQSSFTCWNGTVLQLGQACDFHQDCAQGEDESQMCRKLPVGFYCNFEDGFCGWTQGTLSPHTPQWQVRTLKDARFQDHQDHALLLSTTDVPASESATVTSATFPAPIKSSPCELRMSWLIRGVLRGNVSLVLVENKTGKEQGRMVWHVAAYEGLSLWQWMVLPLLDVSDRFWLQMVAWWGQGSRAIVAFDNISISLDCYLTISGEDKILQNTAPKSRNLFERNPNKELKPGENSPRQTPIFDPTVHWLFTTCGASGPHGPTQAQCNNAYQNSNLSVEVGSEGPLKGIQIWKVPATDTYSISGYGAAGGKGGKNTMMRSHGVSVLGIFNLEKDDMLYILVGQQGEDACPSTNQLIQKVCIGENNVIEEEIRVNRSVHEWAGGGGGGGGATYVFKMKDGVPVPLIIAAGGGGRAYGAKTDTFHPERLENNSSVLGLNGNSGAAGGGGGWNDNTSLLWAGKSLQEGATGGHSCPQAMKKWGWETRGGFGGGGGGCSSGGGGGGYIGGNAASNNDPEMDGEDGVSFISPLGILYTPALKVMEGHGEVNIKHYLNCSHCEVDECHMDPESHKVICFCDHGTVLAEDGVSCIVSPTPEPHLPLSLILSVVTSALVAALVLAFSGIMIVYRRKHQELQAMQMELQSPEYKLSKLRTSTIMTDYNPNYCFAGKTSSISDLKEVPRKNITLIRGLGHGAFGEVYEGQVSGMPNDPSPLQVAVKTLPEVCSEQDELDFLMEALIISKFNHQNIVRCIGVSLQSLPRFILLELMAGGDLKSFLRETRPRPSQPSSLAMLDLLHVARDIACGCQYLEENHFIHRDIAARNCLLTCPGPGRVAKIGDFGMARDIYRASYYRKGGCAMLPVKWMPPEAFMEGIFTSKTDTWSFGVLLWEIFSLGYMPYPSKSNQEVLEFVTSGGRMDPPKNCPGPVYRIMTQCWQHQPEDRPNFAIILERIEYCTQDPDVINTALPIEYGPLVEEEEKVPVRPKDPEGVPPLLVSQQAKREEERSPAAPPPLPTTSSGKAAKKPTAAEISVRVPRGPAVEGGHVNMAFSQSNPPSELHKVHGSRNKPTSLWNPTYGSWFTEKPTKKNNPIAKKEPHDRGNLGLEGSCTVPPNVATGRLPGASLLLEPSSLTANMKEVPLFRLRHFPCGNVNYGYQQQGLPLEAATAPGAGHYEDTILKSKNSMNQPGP

Take `CNC(=O)c1cccc(Nc2nc(Nc3ccc4c(c3)CCN(CCOC)CC4)ncc2Cl)c1` [Example 673, 3-{5-Chloro-2-[3-(2-methoxy-ethyl)-2,3,4,5-tetrahydro-1H-benzo[d]azepin-7-ylamino]-pyrimidin-4-ylamino}-N-methyl-benzamide]: the IC50 lay within 100 to 1000 nM in test [1] (setting [3]) and 1000 to 10000 nM in test [2] (setting [4]).
`C=CCOc1cc(N(C)C)cc(F)c1Nc1nc(Nc2ccc3c(c2)CCOC(=O)N3C)ncc1Cl` [Example 1709, 2-[4-(2-Allyloxy-4-dimethylamino-6-fluoro-phenylamino)-5-chloro-pyrimidin-2-ylamino]-5-methyl-8,9-dihydro-5H-7-oxa-5-aza-benzocyclohepten-6-one]: the IC50 in test [1] (setting [5]) was under 100 nM; in test [2] (setting [6]) it was 100 to 1000 nM.
For the molecule `CNS(=O)(=O)c1ccccc1Nc1nc(Nc2ccc3c(c2)CCN(S(C)(=O)=O)CC3)ncc1Cl` [Example 43, 2-[5-Chloro-2-(3-methanesulfonyl-2,3,4,5-tetrahydro-1H-benzo[d]azepin-7-ylamino)-pyrimidin-4-ylamino]-N-methyl-benzenesulfonamide], the IC50 in test [1] (setting [7]) and in test [2] (setting [8]) was under 100 nM each time.
Regarding `COc1cc2c(cc1Nc1ncc(Cl)c(N[C@@H]3CCCC[C@H]3NS(C)(=O)=O)n1)CCN(CC(=O)N1CCOCC1)CC2` [Example 1528, N-((1R,2R)-2-{5-Chloro-2-[8-methoxy-3-(2-morpholin-4-yl-2-oxo-ethyl)-2,3,4,5-tetrahydro-1H-3-benzazepin-7-ylamino]-pyrimidin-4-ylamino}-cyclohexyl)-methanesulfonamide], the IC50 in test [1] (setting [5]) was under 100 nM; in test [2] (setting [6]) it was over 10000 nM.
In the case of `CC(=O)OCCN1CCSc2ccc(Nc3ncc(Cl)c(N[C@@H]4CCCC[C@H]4NS(C)(=O)=O)n3)cc2C1` [Example 526, Acetic acid 2-{2-[5-chloro-4-((1R,2R)-2-methanesulfonylamino-cyclohexylamino)-pyrimidin-2-ylamino]-6,7-dihydro-9H-5-thia-8-aza-benzocyclohepten-8-yl}-ethyl ester], the figures for the IC50 in test [1] (setting [3]) and in test [2] (setting [4]) were under 100 nM and 1000 to 10000 nM, respectively.
Regarding `CNC(=O)c1cc(N(C)C)ccc1Nc1nc(Nc2cc3c(cc2OC)CCN(CC(=O)N(C)C)CC3)ncc1Cl` [Example 1185, 2-[5-Chloro-2-(3-dimethylcarbamoylmethyl-8-methoxy-2,3,4,5-tetrahydro-1H-benzo[d]azepin-7-ylamino)-pyrimidin-4-ylamino]-5-dimethylamino-N-methyl-benzamide], the IC50 in test [1] (setting [9]) is under 100 nM; in test [2] (setting [10]), over 10000 nM.
The matching figures for `COCCN1CCc2ccc(Nc3ncc(Cl)c(Nc4c(F)cccc4S(=O)(=O)C(C)C)n3)cc2CC1` [Example 1253, 5-Chloro-N(4)-[2-fluoro-6-(propane-2-sulfonyl)-phenyl]-N(2)-[3-(2-methoxy-ethyl)-2,3,4,5-tetrahydro-1H-3-benzazepin-7-yl]-pyrimidine-2,4-diamine]: under 100 nM and 1000 to 10000 nM.
As for `CNC(=O)c1ccccc1Nc1nc(Nc2ccc3c(c2)CCCC(=O)N3)ncc1Cl` [Example 2, 2-[5-Chloro-2-(2-oxo-2,3,4,5-tetrahydro-1H-benzo[b]azepin-7-ylamino)-pyrimidin-4-ylamino]-N-methyl-benzamide], the IC50 in test [1] (setting [7]) and in test [2] (setting [8]) was under 100 nM throughout.
For the molecule `COc1ccc(Nc2nc(Nc3cc4c(cc3OC)CCN(CC(=O)N(C)C)CC4)ncc2Cl)c(N2CCOCC2)c1` [Example 829, 2-{7-[5-Chloro-4-(4-methoxy-2-morpholin-4-yl-phenylamino)-pyrimidin-2-ylamino]-8-methoxy-1,2,4,5-tetrahydro-benzo[d]azepin-3-yl}-N,N-dimethyl-acetamide], the IC50 in test [1] (setting [3]) is under 100 nM; in test [2] (setting [4]), over 10000 nM.
The matching figures for `COc1cc2c(cc1Nc1ncc(Cl)c(Nc3ccc(Cl)cc3S(=O)(=O)N(C)C)n1)CCN(CC(=O)N(C)C)CC2` [Example 832, 2-{7-[5-Chloro-4-(4-chloro-2-dimethylsulfamoyl-phenylamino)-pyrimidin-2-ylamino]-8-methoxy-1,2,4,5-tetrahydro-benzo[d]azepin-3-yl}-N,N-dimethyl-acetamide]: under 100 nM and over 10000 nM.
As for `CNC(=O)c1cccc(Cl)c1Nc1nc(Nc2ccc3c(c2)N(C)CCNC3)ncc1Cl` [Example 460, 3-Chloro-2-[5-chloro-2-(1-methyl-2,3,4,5-tetrahydro-1H-benzo[e][1,4]diazepin-8-ylamino)-pyrimidin-4-ylamino]-N-methyl-benzamide], the values for the IC50 in test [1] (setting [7]) and in test [2] (setting [8]) were 100 to 1000 nM and under 100 nM, respectively.
`COCCN1CCc2ccc(Nc3ncc(Cl)c(N[C@H]4CC[C@H](N(CC#N)S(C)(=O)=O)CC4)n3)cc2CC1` [Example 1385, trans-N-(4-{5-Chloro-2-[3-(2-methoxy-ethyl)-2,3,4,5-tetrahydro-1H-benzo[d]azepin-7-ylamino]-pyrimidin-4-ylamino}-cyclohexyl)-N-cyanomethyl-methanesulfonamide]: the IC50 was 100 to 1000 nM in test [1] (setting [9]) and 1000 to 10000 nM in test [2] (setting [10]).
For the molecule `CNC(=O)c1ccccc1Nc1nc(Nc2ccc3c(c2)N(C)CCN(C)C3=O)ncc1Cl` [Example 413, 2-[5-Chloro-2-(1,4-dimethyl-5-oxo-2,3,4,5-tetrahydro-1H-benzo[e][1,4]diazepin-8-ylamino)-pyrimidin-4-ylamino]-N-methylbenzamide], the IC50 in test [1] (setting [7]) and in test [2] (setting [8]) was under 100 nM in each case.
Turning to `CCN1CC2CC(C1)c1cc(Nc3ncc(Cl)c(NC4C5C=CC(C5)C4C(N)=O)n3)ccc12` (stereo not drawn) [Example 160, (2-exo,3-exo)-3-[5-Chloro-2-(10-ethyl-10-aza-tricyclo[6.3.1.0*2,7*]dodeca-2,4,6-trien-4-ylamino)-pyrimidin-4-ylamino]-bicyclo[2.2.1]hept-5-ene-2-carboxylic acid amide], the IC50 in test [1] (setting [7]) lay within 100 to 1000 nM; in test [2] (setting [8]), 1000 to 10000 nM.
Consider `CCNC(=O)c1cccc(F)c1Nc1nc(Nc2ccc3c(c2)CNC(=O)CCN3C(C)=O)ncc1Cl` [Example 1228, 2-[2-(1-Acetyl-4-oxo-1,2,3,4,5,6-hexahydro-benzo[b][1,5]diazocin-8-ylamino)-5-chloro-pyrimidin-4-ylamino]-N-ethyl-3-fluoro-benzamide], for which the IC50 in test [1] (setting [9]) is 100 to 1000 nM; in test [2] (setting [10]), under 100 nM.
Regarding `CNC(=O)c1cc(-c2cnn(C)c2)cc(F)c1Nc1nc(Nc2ccc3c(c2)NC(=O)CCC3(C)C)ncc1Cl` [Example 1624, 2-[5-Chloro-2-(5,5-dimethyl-2-oxo-2,3,4,5-tetrahydro-1H-benzo[b]azepin-8-ylamino)-pyrimidin-4-ylamino]-3-fluoro-N-methyl-5-(1-methyl-1H-pyrazol-4-yl)-benzamide], the IC50 in test [1] (setting [5]) and in test [2] (setting [6]) was under 100 nM throughout.
Consider `CS(=O)(=O)N[C@@H]1CCCC[C@H]1Nc1nc(Nc2ccc3c(c2)CCC(N2CCOCC2)CC3)ncc1Cl` (stereo partly drawn) [Example 179, N-{(1R,2R)-2-[5-Chloro-2-(7-morpholin-4-yl-6,7,8,9-tetrahydro-5H-benzocyclohepten-2-ylamino)-pyrimidin-4-ylamino]-cyclohexyl}-methanesulfonamide], for which the IC50 in test [1] (setting [7]) is under 100 nM; in test [2] (setting [8]), 100 to 1000 nM.
Regarding `CNC(=O)c1scc(C)c1Nc1nc(Nc2ccc3c(c2)C(C)(C)NC(=O)CC3)ncc1Cl` [Example 1835, 3-(5-Chloro-2-(1,1-dimethyl-3-oxo-2,3,4,5-tetrahydro-1H-benzo[c]azepin-8-ylamino)pyrimidin-4-ylamino)-N,4-dimethylthiophene-2-carboxamide], the results for the IC50 in test [1] (setting [5]) and in test [2] (setting [6]) were 100 to 1000 nM and under 100 nM, respectively.
The like results for `CNC(=O)c1cccc(F)c1Nc1nc(Nc2ccc3c(c2)N(CCN2CCCC2)CCCC3(C)C)ncc1Cl` [Example 1605, 2-{5-Chloro-2-[5,5-dimethyl-1-(2-pyrrolidin-1-yl-ethyl)-2,3,4,5-tetrahydro-1H-benzo[b]azepin-8-ylamino]-pyrimidin-4-ylamino}-3-fluoro-N-methyl-benzamide] were, in that order, under 100 nM and 100 to 1000 nM.
With `CNC(=O)c1ccccc1Nc1nc(Nc2ccc3c(c2)CCN(C(C)C)CC3)ncc1Cl` [Example 47, 2-[5-Chloro-2-(3-isopropyl-2,3,4,5-tetrahydro-1H-benzo[d]azepin-7-ylamino)-pyrimidin-4-ylamino]-N-methyl-benzamide], the IC50 in test [1] (setting [7]) and in test [2] (setting [8]) was under 100 nM in each case.
For the molecule `COc1cc2c(cc1Nc1ncc(Cl)c(Nc3ccc(N(C)C)cc3S(=O)(=O)C(C)C)n1)CCN(CC(=O)N(C)C)CC2` [Example 1187, 2-(7-{5-Chloro-4-[4-dimethylamino-2-(propane-2-sulfonyl)-phenylamino]-pyrimidin-2-ylamino}-8-methoxy-1,2,4,5-tetrahydro-benzo[d]azepin-3-yl)-N,N-dimethyl-acetamide], the IC50 in test [1] (setting [9]) is under 100 nM; in test [2] (setting [10]), over 10000 nM.
In the case of `COCCN1CCc2ccc(Nc3ncc(Cl)c(Nc4cc(Cl)ccc4OC)n3)cc2CC1` [Example 146, 5-Chloro-N*4*-(5-chloro-2-methoxy-phenyl)-N*2*-[3-(2-methoxy-ethyl)-2,3,4,5-tetrahydro-1H-benzo[d]azepin-7-yl]-pyrimidine-2,4-diamine], the IC50 is under 100 nM in test [1] (setting [7]) and 100 to 1000 nM in test [2] (setting [8]).
